No end group written: not given here.
Experiments:
Format in all cases: cell-based
[1] = biological target: T1, CaR2 (Homo sapiens, UniProt Q5T6X5); assay: FLIPR assay of intracellular Ca^++ in HEK293 clone HEK-167B12-2.1 stably expressing CaR2; conditions: for FLIPR response (change of intracellular Ca^++ levels): initial ligand testing in the transfected cells; for effect on OC/Ca^++ activation of CaR2: OC and Ca^2+ pre-incubated with / in the presence of lead ion
T1 construct: expressed in transfected cells
T1 sequence (Q5T6X5 19-926): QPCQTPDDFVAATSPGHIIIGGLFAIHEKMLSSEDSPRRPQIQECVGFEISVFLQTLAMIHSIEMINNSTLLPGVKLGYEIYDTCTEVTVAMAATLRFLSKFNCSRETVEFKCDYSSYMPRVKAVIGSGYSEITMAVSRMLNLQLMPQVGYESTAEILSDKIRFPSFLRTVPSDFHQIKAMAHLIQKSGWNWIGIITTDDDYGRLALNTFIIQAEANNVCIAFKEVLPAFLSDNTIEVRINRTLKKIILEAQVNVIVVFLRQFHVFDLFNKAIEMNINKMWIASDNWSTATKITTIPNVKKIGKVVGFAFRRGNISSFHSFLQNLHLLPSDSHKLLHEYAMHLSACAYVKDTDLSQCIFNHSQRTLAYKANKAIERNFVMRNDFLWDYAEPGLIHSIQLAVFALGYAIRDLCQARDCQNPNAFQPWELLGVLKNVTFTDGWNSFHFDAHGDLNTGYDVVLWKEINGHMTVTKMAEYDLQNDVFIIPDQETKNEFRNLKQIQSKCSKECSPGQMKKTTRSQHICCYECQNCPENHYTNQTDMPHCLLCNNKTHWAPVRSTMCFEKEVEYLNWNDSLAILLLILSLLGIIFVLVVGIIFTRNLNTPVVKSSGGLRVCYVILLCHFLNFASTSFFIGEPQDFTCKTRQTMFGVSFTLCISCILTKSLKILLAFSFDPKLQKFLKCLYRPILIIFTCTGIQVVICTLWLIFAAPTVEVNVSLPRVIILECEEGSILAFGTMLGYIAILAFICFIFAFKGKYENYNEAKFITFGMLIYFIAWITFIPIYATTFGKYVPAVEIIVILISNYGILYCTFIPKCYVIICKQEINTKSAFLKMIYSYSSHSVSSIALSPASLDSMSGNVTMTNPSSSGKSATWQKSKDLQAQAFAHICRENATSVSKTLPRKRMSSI
Description: To facilitate pharmacological experimentation, CaR2 cDNA was cloned into the mammalian expression vector pcDNA 3.1 (+) Neo with or without a COOH-terminal FLAG epitope. The transgene was introduced into the HEK293 cell line and stable transfectants were identified. These clones were analyzed for CaR2 expression by qPCR and Western blotting to identify those clones that were suitable for ligand identification. The clone HEK-167B12-2.1 was chosen for further experimentation.
Based on the homology to the characterized goldfish odorant receptor 5.24, initial studies investigated the ability of 18 naturally occurring amino acids to trigger changes of intracellular Ca^++ levels in the transfected cells, as measured with a fluorescent imaging plate reader (FLIPR).
(§1) Intracellular Ca^++ was measured using a fluorometric imaging plate reader (FLIPR) [Molecular Devices]. Cells were seeded at a density of 1×10^5/well (96-well plate) or 1×10^4/well (384-well plate) in collagen coated plates and incubated overnight at 36.9° C. with 5% CO2. Medium was aspirated from the plates and replaced with equal volumes of a no wash calcium dye (Molecular Devices) and modified Hank's buffered saline solution [Ca^2+-free, Mg^2+-free] (140 mM NaCl, 5.4 mM KCl, 0.64 mM KH2PO4, 3 mM NaHCO3, 5.5 mM C6H12O6, 20 mM HEPES, 2.5 mM Caprylic acid (or 2.5 mM probenecid)). The plates were incubated for 1 hour at 36.9° C. with 5% CO2. FLIPR was used to measure changes in intracellular calcium as relative fluorescence upon activation by ligand.

[2] = biological target: T2, CaR (Homo sapiens, UniProt P41180); assay: Ca^++ response of HEK 293 cells that express the previously characterized CaR
T2 construct: expressed in transfected cells; host or cells: HEK 293
T2 sequence (P41180 20-1078): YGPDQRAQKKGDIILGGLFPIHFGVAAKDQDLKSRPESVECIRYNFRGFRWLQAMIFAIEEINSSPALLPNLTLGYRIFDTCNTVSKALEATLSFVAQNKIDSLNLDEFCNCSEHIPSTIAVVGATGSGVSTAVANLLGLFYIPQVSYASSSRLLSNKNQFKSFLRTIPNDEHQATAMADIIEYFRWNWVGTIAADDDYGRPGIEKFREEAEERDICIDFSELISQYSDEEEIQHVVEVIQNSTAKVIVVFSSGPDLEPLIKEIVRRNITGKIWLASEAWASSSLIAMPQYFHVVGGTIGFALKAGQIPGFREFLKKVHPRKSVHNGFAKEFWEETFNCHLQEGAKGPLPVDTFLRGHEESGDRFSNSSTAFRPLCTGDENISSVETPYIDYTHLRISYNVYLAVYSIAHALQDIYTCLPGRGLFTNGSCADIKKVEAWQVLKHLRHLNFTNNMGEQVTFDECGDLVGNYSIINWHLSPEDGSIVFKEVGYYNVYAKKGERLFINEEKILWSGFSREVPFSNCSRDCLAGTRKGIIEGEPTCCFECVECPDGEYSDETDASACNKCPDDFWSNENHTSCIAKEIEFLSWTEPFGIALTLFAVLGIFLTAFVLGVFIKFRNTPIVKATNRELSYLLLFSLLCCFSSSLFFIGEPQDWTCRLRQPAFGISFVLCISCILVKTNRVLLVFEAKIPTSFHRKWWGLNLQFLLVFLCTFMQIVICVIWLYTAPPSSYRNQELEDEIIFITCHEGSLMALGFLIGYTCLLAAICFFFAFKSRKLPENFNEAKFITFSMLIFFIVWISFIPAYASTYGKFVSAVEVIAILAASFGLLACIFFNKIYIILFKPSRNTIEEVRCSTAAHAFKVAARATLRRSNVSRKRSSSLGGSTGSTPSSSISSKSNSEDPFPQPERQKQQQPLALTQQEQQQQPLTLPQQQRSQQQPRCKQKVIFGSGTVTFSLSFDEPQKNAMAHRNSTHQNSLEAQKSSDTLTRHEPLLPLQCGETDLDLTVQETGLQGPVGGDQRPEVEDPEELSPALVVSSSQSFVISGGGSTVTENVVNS
Description: as §1
(§2) Also, the apical side of cells lining tubules in Henle's loop in kidney and in epithelial cells lining prostate ducts are microenvironments where CaR2 would encounter higher than standard extracellular Ca^++.

[3] = system: parental HEK293 cells; assay: FLIPR assay of intracellular Ca^++ in parental HEK293 cells that do not express CaR2
Description: as §1, §2

osteocalcin (YLYQWLGAPVPYPDPLEPRREVCELNPDCDELADHIGFQEAYRRFYGPV; ends and bridges not checked; cysteine pairing not given here; UniProt P02818 52-100, looked up)
OC activation of CaR2 ([1]; OC pre-incubated with 10 mM Ca^++): activates CaR2 when pre-incubated with 10 mM Ca^++ in a dose-dependent manner
effect of OC on CaR2 activation by calcium ([1]; in the presence of osteocalcin): activated at lower calcium levels and the activation by high mM calcium was potentiated
synergistic effect of Ca^++ and osteocalcin on CaR2, dependence on pre-incubation ([1]; pre-incubated versus both ligands added separately): only witnessed when calcium is pre-incubated with OC, but not when both ligands are added separately
synergistic effect of Ca^++ and osteocalcin ([2]; OC and Ca^++ added to HEK293 cells that express CaR): not observed
synergistic effect of Ca^++ and osteocalcin ([3]; OC and Ca^++ added to parental HEK293 cells): not observed

NCCCC(=O)O [GABA]
FLIPR response (change of intracellular Ca^++ levels) [1]: failed to elicit a positive FLIPR response

[Ca+2] [Ca^++, calcium]
activation of CaR2 ([1]; 10 mM Ca^++): modest activation
activation of CaR2 ([1]; 40 mM Ca^++): robustly activated
EC50 ([1]; Ca^++ as activating ligand, clone expressing CaR2): 85 mM
calcium level causing a marked increase in fluorescence signal, hence intracellular Ca^++ ([1]; clone expressing CaR2): > 20 mM
FLIPR response (change of intracellular Ca^++ levels) [1]: failed to elicit a positive FLIPR response
EC50 ([2]; transfected HEK 293 cells): 4.1 mM
increase in fluorescence signal by high calcium levels ([3]; parental cell line, >20 mM calcium): not observed

[Pb+2] [Pb^2+]
effect on OC/Ca^++ activation of CaR2 [1]: reversed
effect on OC/Ca^++ activation of CaR2 ([1]; listed as Pb^++): blocked

CN[C@H](CC(=O)O)C(=O)O [NMDA]
FLIPR response (change of intracellular Ca^++ levels) [1]: failed to elicit a positive FLIPR response

Source: patent US20040082018A1, “Methods for using osteocalcin” (Athersys, Inc., priority 2002, published 2004)
